# Data reported in the supplement of paper PMC10307832.
# Key:
# Experiment in all cases: relative viability (nuclei count vs DMSO), 5 days (fraction); higher = more cells survive
# 201T = tested on: 201T
# Summary of the method: (§1)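 Relative viability equals treated-well nuclei counts divided by vehicle-well nuclei counts. Counts came from 4× images of lung cancer cell lines grown in 1536-well plates for 5 days after pin-tool dosing on the day after seeding. Dosing used one drug alone or a fixed anchor-drug dose plus five library-drug doses (not always all listed) in √10 steps, and values are medians of duplicate plates.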
# BEN = tested on: BEN
# Summary of the method: as §1
# CAL-12T = tested on: CAL-12T
# Summary of the method: as §1
# COR-L 105 = tested on: COR-L 105
# Summary of the method: as §1
# H3255 = tested on: H3255
# Summary of the method: as §1
# HARA = tested on: HARA
# Summary of the method: as §1
# HCC-15 = tested on: HCC-15
# Summary of the method: as §1
# HCC-827 = tested on: HCC-827
# Summary of the method: as §1
# LC-2-ad = tested on: LC-2-ad
# Summary of the method: as §1
# LK-2 = tested on: LK-2
# Summary of the method: as §1
# LU99A = tested on: LU99A
# Summary of the method: as §1
# LXF-289 = tested on: LXF-289
# Summary of the method: as §1
# NCI-H1437 = tested on: NCI-H1437
# Summary of the method: as §1
# NCI-H1651 = tested on: NCI-H1651
# Summary of the method: as §1
# NCI-H1792 = tested on: NCI-H1792
# Summary of the method: as §1
# NCI-H2085 = tested on: NCI-H2085
# Summary of the method: as §1
# NCI-H2228 = tested on: NCI-H2228
# Summary of the method: as §1
# NCI-H23 = tested on: NCI-H23
# Summary of the method: as §1
# NCI-H2405 = tested on: NCI-H2405
# Summary of the method: as §1
# NCI-H322M = tested on: NCI-H322M
# Summary of the method: as §1
# RERF-LC-KJ = tested on: RERF-LC-KJ
# Summary of the method: as §1
# UMC-11 = tested on: UMC-11
# Summary of the method: as §1
compound,measurement,setting,value
Cc1cnc(-c2cnc(NCCNc3ccc(C#N)cn3)nc2-c2ccc(Cl)cc2Cl)[nH]1 + CC1(C)CCC(c2ccc(Cl)cc2)=C(CN2CCN(c3ccc(C(=O)NS(=O)(=O)c4ccc(N[C@H](CCN5CCOCC5)CSc5ccccc5)c(S(=O)(=O)C(F)(F)F)c4)cc3)CC2)C1 [Navitoclax] (partner 0.5 µM),relative viability,201T; first compound 0.08 µM,1.19
same,relative viability,201T; first compound 0.253 µM,1.17
same,relative viability,201T; first compound 0.8 µM,1.2
same,relative viability,201T; first compound 2.53 µM,1.23
same,relative viability,BEN; first compound 0.08 µM,0.0701
same,relative viability,BEN; first compound 0.253 µM,0.0548
same,relative viability,BEN; first compound 0.8 µM,0.0658
same,relative viability,BEN; first compound 2.53 µM,0.0673
same,relative viability,CAL-12T; first compound 0.08 µM,1.29
same,relative viability,CAL-12T; first compound 0.253 µM,1.15
same,relative viability,CAL-12T; first compound 0.8 µM,1.18
same,relative viability,CAL-12T; first compound 2.53 µM,1.06
same,relative viability,COR-L 105; first compound 0.08 µM,0.875
same,relative viability,COR-L 105; first compound 0.253 µM,0.686
same,relative viability,COR-L 105; first compound 0.8 µM,1.54
same,relative viability,COR-L 105; first compound 2.53 µM,0.558
same,relative viability,H3255; first compound 0.08 µM,0.413
same,relative viability,H3255; first compound 0.253 µM,0.424
same,relative viability,H3255; first compound 0.8 µM,0.508
same,relative viability,H3255; first compound 2.53 µM,0.361
same,relative viability,HARA; first compound 0.08 µM,1.13
same,relative viability,HARA; first compound 0.253 µM,1.12
same,relative viability,HARA; first compound 0.8 µM,1.16
same,relative viability,HARA; first compound 2.53 µM,1.19
same,relative viability,HCC-15; first compound 0.08 µM,0.737
same,relative viability,HCC-15; first compound 0.253 µM,0.622
same,relative viability,HCC-15; first compound 0.8 µM,0.65
same,relative viability,HCC-15; first compound 2.53 µM,0.578
same,relative viability,HCC-827; first compound 0.08 µM,1.04
same,relative viability,HCC-827; first compound 0.8 µM,1.05
same,relative viability,HCC-827; first compound 2.53 µM,1.05
same,relative viability,LC-2-ad; first compound 0.08 µM,0.53
same,relative viability,LC-2-ad; first compound 0.8 µM,0.452
same,relative viability,LC-2-ad; first compound 2.53 µM,0.5
same,relative viability,LK-2; first compound 0.08 µM,1.01
same,relative viability,LK-2; first compound 0.253 µM,0.9
same,relative viability,LK-2; first compound 0.8 µM,0.872
same,relative viability,LK-2; first compound 2.53 µM,1.28
same,relative viability,LU99A; first compound 0.08 µM,0.858
same,relative viability,LU99A; first compound 0.253 µM,0.808
same,relative viability,LU99A; first compound 0.8 µM,0.794
same,relative viability,LU99A; first compound 2.53 µM,0.823
same,relative viability,LXF-289; first compound 0.08 µM,0.934
same,relative viability,LXF-289; first compound 0.253 µM,0.873
same,relative viability,LXF-289; first compound 0.8 µM,0.924
same,relative viability,LXF-289; first compound 2.53 µM,1.01
same,relative viability,NCI-H1437; first compound 0.08 µM,1.1
same,relative viability,NCI-H1437; first compound 0.253 µM,1.05
same,relative viability,NCI-H1437; first compound 0.8 µM,1.12
same,relative viability,NCI-H1437; first compound 2.53 µM,1.12
same,relative viability,NCI-H1651; first compound 0.08 µM,1.09
same,relative viability,NCI-H1651; first compound 0.253 µM,0.874
same,relative viability,NCI-H1651; first compound 0.8 µM,1.06
same,relative viability,NCI-H1651; first compound 2.53 µM,1.2
same,relative viability,NCI-H1792; first compound 0.08 µM,0.624
same,relative viability,NCI-H1792; first compound 0.253 µM,0.577
same,relative viability,NCI-H1792; first compound 0.8 µM,0.601
same,relative viability,NCI-H1792; first compound 2.53 µM,0.568
same,relative viability,NCI-H2085; first compound 0.08 µM,1.17
same,relative viability,NCI-H2085; first compound 0.253 µM,1.15
same,relative viability,NCI-H2085; first compound 0.8 µM,1.03
same,relative viability,NCI-H2085; first compound 2.53 µM,1.16
same,relative viability,NCI-H2228; first compound 0.08 µM,0.854
same,relative viability,NCI-H2228; first compound 0.253 µM,1.14
same,relative viability,NCI-H2228; first compound 0.8 µM,0.796
same,relative viability,NCI-H2228; first compound 2.53 µM,0.536
same,relative viability,NCI-H23; first compound 0.08 µM,0.875
same,relative viability,NCI-H23; first compound 0.253 µM,0.87
same,relative viability,NCI-H23; first compound 0.8 µM,0.63
same,relative viability,NCI-H23; first compound 2.53 µM,0.785
same,relative viability,NCI-H2405; first compound 0.08 µM,1.17
same,relative viability,NCI-H2405; first compound 0.253 µM,0.761
same,relative viability,NCI-H2405; first compound 0.8 µM,1.02
same,relative viability,NCI-H2405; first compound 2.53 µM,0.326
same,relative viability,NCI-H322M; first compound 0.08 µM,1.3
same,relative viability,NCI-H322M; first compound 0.253 µM,1.25
same,relative viability,NCI-H322M; first compound 0.8 µM,1.14
same,relative viability,NCI-H322M; first compound 2.53 µM,1.2
same,relative viability,RERF-LC-KJ; first compound 0.08 µM,1.08
same,relative viability,RERF-LC-KJ; first compound 0.253 µM,0.626
same,relative viability,RERF-LC-KJ; first compound 0.8 µM,0.905
same,relative viability,RERF-LC-KJ; first compound 2.53 µM,0.776
same,relative viability,UMC-11; first compound 0.08 µM,0.341
same,relative viability,UMC-11; first compound 0.253 µM,0.295
same,relative viability,UMC-11; first compound 0.8 µM,0.304
same,relative viability,UMC-11; first compound 2.53 µM,0.324
